“And” between values parts separate entries of the source, which are not always exact repeats. Equal values may be shown once.
How the values were obtained:
[1] = system: male NMR^1 mice; experiment: Anorectic effect: consumption of condensed milk by fasted mice after administration by gavage; assay type: in vivo
Protocol: The anorectic effect was tested on male NMR^1 mice. After withdrawal of feed for 24 hours, the test product was administered by gavage. The animals were housed singly and had free access to drinking water and, 30 minutes after administration of the product, they were offered condensed milk. The consumption of condensed milk was determined, and the general behavior of the animals was inspected, every half hour for 7 hours. The measured milk consumption was compared with that of untreated control animals.

SMILES	melting point	Reduction in the cumulative milk consumption as % of the controls ([1]; oral dose 50 mg/kg by gavage, compared with untreated control animals, 7 hours) [%]	cumulative milk consumption by the treated animals ([1]; oral dose 50 mg/kg by gavage, feed withdrawn 24 hours, milk offered 30 minutes after administration, determined for 7 hours, 5 animals)	Remarks (general behavior / side effects of the animals) ([1]; oral dose 50 mg/kg, behavior inspected every half hour for 7 hours)
Br.CN1C(=CN)SC2=C1c1ccc(Cl)cc1C2	278 °C			
Cl.Cn1c2c(sc1=NCC(=O)O)COc1ccc(F)cc1-2	256 °C			
Br.c1ccc(Oc2ccc3c(c2)CC2=C3N3CCN=C3S2)cc1 [Example 24, 7-Phenoxy-4H,9H-2,3-dihydroimidazo[2,1-b]indeno[1,2-d]thiazole hydrobromide]		93	5/0.30 ml	none
CN1C(=CN)SC2=C1c1ccc(Oc3ccc(Cl)cc3)cc1C2.Cl [Example 15, [6-(4-Chlorophenoxy)-3-methyl-3,8-dihydroindeno[1,2-d]thiazol-2-ylidene]methylamine hydrochloride]	250 to 252 °C and 251 °C			
Br.CN=c1sc2c(n1C)-c1cccc(-c3ccc(C(F)(F)F)cc3)c1C2	231 °C and 230 to 233 °C			

Reference: patent US20010011096A1, “Polycyclic thiazol-2-ylidene amines, processes for their preparation and their use as medicaments” (priority 1999, published 2001)
